This assay concerns the target human sodium ion channel 1.7 (hNav1.7) (Homo sapiens, UniProt Q15858). In words: Blocking effect against sodium ion channel Nav1.7, IonFlux16 auto patch clamp in hNav1.7 HEK293 cells. The assay is classed as cell-based. A general note: The patch-clamp technique gives a direct electrical read-out from membranes.
Where [1] appears, read: hNav1.7 HEK293 cells, inhibition of peak current after 50 seconds treatment, eight concentrations, read-out: IC50.

Where two headings read alike, the source gives them in different places.

Sequence of human sodium ion channel 1.7 (hNav1.7) (Q15858 whole entry): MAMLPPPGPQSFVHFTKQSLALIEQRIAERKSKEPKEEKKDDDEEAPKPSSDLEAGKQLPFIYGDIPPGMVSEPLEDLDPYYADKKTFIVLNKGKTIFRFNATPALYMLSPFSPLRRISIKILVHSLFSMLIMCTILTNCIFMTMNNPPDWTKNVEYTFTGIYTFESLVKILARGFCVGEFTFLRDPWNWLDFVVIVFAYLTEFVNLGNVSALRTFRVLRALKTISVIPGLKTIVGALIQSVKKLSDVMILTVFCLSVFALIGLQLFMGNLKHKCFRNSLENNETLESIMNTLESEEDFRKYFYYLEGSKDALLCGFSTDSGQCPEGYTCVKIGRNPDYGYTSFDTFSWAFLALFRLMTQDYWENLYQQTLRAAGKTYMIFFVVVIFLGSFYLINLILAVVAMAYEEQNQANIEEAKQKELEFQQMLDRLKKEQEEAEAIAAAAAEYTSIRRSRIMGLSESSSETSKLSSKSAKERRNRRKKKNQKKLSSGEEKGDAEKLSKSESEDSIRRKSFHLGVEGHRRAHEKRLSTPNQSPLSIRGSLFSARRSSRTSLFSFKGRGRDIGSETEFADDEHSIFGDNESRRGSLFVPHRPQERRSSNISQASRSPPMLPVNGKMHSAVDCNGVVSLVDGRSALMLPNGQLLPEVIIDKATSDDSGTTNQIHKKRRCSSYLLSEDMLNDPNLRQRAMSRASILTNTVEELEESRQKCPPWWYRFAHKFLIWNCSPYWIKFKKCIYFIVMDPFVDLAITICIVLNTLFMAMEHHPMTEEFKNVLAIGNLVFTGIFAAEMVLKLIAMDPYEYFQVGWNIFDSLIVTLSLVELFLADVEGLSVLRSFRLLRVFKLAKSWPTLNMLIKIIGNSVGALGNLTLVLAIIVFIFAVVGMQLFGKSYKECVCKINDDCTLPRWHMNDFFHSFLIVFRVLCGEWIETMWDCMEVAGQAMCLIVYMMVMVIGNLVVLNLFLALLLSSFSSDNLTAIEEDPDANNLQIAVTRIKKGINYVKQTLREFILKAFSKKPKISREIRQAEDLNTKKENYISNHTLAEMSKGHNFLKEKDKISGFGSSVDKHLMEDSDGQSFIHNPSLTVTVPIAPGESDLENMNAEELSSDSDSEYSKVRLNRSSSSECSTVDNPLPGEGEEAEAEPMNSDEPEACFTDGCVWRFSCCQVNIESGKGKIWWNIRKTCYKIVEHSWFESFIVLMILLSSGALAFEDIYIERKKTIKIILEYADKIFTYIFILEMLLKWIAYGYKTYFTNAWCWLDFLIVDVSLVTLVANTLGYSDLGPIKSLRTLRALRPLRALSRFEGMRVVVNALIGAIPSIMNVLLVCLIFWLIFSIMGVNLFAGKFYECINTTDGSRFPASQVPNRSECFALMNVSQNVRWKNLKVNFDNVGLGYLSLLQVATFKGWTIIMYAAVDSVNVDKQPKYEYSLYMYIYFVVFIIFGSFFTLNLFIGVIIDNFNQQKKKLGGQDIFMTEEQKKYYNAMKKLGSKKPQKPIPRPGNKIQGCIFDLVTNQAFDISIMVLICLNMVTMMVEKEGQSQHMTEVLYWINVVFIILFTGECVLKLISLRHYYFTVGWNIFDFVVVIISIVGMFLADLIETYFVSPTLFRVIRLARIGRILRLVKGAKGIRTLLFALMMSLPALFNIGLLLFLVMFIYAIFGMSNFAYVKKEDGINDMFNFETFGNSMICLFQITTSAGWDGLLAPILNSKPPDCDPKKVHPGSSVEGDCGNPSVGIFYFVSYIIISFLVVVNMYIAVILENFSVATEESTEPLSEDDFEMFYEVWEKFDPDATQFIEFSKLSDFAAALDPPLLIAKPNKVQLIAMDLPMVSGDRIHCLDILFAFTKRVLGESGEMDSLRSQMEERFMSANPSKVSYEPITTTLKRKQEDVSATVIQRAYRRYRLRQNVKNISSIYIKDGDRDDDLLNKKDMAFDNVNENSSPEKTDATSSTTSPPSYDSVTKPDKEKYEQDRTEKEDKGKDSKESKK

One may read the IC50 as the concentration that inhibits the measured activity by half. As to `Cc1cccc(-c2cn(-c3cc(F)c(C(=O)NS(C)(=O)=O)cc3Cl)c3ncccc23)c1` [Example 215, 5-chloro-2-fluoro-N-(methylsulfonyl)-4-(3-(m-tolyl)-1H-pyrrolo[2,3-b]pyridin-1-yl)benzamide], the half-maximal inhibitory concentration (IC50) under setting [1] is 210 nM.
Same read-out and setting: for `Cn1nccc1-c1nn(-c2cc(F)c(C(=O)NS(C)(=O)=O)cc2Cl)c2ccc(Cl)cc12` [Example 87, 5-chloro-4-(5-chloro-3-(1-methyl-1H-pyrazol-5-yl)-1H-indazol-1-yl)-2-fluoro-N-(methylsulfonyl)benzamide] the value was over 3000 nM; for `Cc1cccc(-c2nn(-c3cc(F)c(C(=O)NS(C)(=O)=O)cc3Cl)c3ccc(F)cc23)c1` [Example 152, 5-chloro-2-fluoro-4-(5-fluoro-3-(m-tolyl)-1H-indazol-1-yl)-N-(methylsulfonyl)benzamide], 80 nM; for `CS(=O)(=O)NC(=O)c1cc(Cl)c(-n2cc(-c3ccccc3Cl)c3cc(F)cnc32)cc1F` [Example 207, 5-chloro-4-(3-(2-chlorophenyl)-5-fluoro-1H-pyrrolo[2,3-b]pyridin-1-yl)-2-fluoro-N-(methylsulfonyl)benzamide], 140 nM.
For the compound `COC(=O)c1nn(-c2cc(F)c(C(=O)NS(C)(=O)=O)cc2Cl)c2cc(OCc3ccccc3)ccc12` [Example 46, methyl 6-(benzyloxy)-1-(2-chloro-5-fluoro-4-((methylsulfonyl)carbamoyl)phenyl)-1H-indazole-3-carboxylate], the IC50 under setting [1] is over 10000 nM.
Still for that read-out and setting: in the case of `CS(=O)(=O)NC(=O)c1cc(Cl)c(-n2nc(Cl)c3cc(Cl)ccc32)cc1F` [Example 9, 5-chloro-4-(3,5-dichloro-1H-indazol-1-yl)-2-fluoro-N-(methylsulfonyl)benzamide] it was 117 nM; in that of `CS(=O)(=O)NC(=O)c1cc(Cl)c(-n2nc(-c3cccc(F)c3)c3cc(F)ccc32)cc1F` [Example 148, 5-chloro-2-fluoro-4-(5-fluoro-3-(3-fluorophenyl)-1H-indazol-1-yl)-N-(methylsulfonyl)benzamide], 90 nM; in that of `CS(=O)(=O)NC(=O)c1cc(Cl)c(-n2cc(-c3ccc(F)cc3)c3cc(F)cnc32)cc1F` [Example 206, 5-chloro-2-fluoro-4-(5-fluoro-3-(4-fluorophenyl)-1H-pyrrolo[2,3-b]pyridin-1-yl)-N-(methylsulfonyl)benzamide], 210 nM.
As to `CS(=O)(=O)NC(=O)c1cc(Cl)c(-n2cc(-c3ccc(F)cc3)c3cc(Cl)cnc32)cc1F` [Example 185, 5-chloro-4-(5-chloro-3-(4-fluorophenyl)-1H-pyrrolo[2,3-b]pyridin-1-yl)-2-fluoro-N-(methylsulfonyl)benzamide], the IC50 under setting [1] was 80 nM.
As to `Cc1ccccc1-c1nn(-c2cc(F)c(C(=O)NS(C)(=O)=O)cc2Cl)c2ccccc12` [Example 173, 5-chloro-2-fluoro-N-(methylsulfonyl)-4-(3-(o-tolyl)-1H-indazol-1-yl)benzamide], under setting [1], the IC50 turned out to be 210 nM.
In the case of `CS(=O)(=O)NC(=O)c1cc(Cl)c(-n2cc(-c3ccc(F)cc3Cl)c3cc(Cl)cnc32)cc1F` [Example 197, 5-chloro-4-(5-chloro-3-(2-chloro-4-fluorophenyl)-1H-pyrrolo[2,3-b]pyridin-1-yl)-2-fluoro-N-(methylsulfonyl)benzamide], under setting [1], the half-inhibitory concentration (IC50) was 40 nM.
With `CS(=O)(=O)NC(=O)c1cc(Cl)c(-n2nc(-c3ccc(F)cc3Cl)c3cc(Cl)ccc32)cc1F` [Example 74, 5-chloro-4-(5-chloro-3-(2-chloro-4-fluorophenyl)-1H-indazol-1-yl)-2-fluoro-N-(methylsulfonyl)benzamide], the concentration for half-maximal inhibition (IC50) under setting [1] turned out to be 20 nM.
For the compound `CS(=O)(=O)NC(=O)c1cc(Cl)c(-n2nc(C3=CCNCC3)c3cc(Cl)ccc32)cc1F` [Example 132, 5-chloro-4-(5-chloro-3-(1,2,3,6-tetrahydropyridin-4-yl)-1H-indazol-1-yl)-2-fluoro-N-(methylsulfonyl)benzamide], under setting [1], the IC50 was over 10000 nM.
With `CS(=O)(=O)NC(=O)c1cc(Cl)c(-n2cc(Cl)c3ccc(OCc4ccccc4)cc32)cc1F` [Example 271, 4-(6-(benzyloxy)-3-chloro-1H-indol-1-yl)-5-chloro-2-fluoro-N-(methylsulfonyl)benzamide], the IC50 under setting [1] was found to be 2130 nM.
As for `Cn1cc(-c2nn(-c3cc(F)c(C(=O)NS(C)(=O)=O)cc3Cl)c3ccc(Cl)cc23)ccc1=O` [Example 130, 5-chloro-4-(5-chloro-3-(1-methyl-6-oxo-1,6-dihydropyridin-3-yl)-1H-indazol-1-yl)-2-fluoro-N-(methylsulfonyl)benzamide], the IC50 under setting [1] is over 10000 nM.
For `CS(=O)(=O)NC(=O)c1ccc(-n2nc(-c3ccc(F)cc3)c3cc(Cl)ccc32)c(C#N)c1` [Example 101, 4-(5-chloro-3-(4-fluorophenyl)-1H-indazol-1-yl)-3-cyano-N-(methylsulfonyl)benzamide], the IC50 under setting [1] was determined as 3020 nM.
Still for that read-out and setting: for `CS(=O)(=O)NC(=O)c1ccc(-n2nc(Cl)c3cc(Cl)ccc32)c(Cl)c1` [Example 8, 3-chloro-4-(3,5-dichloro-1H-indazol-1-yl)-N-(methylsulfonyl)benzamide] the value was 880 nM.
With `CC(C)COc1ccc2c(cnn2-c2cc(F)c(C(=O)NS(C)(=O)=O)cc2Cl)c1` [Example 41, 5-chloro-2-fluoro-4-(5-isobutoxy-1H-indazol-1-yl)-N-(methylsulfonyl)benzamide], the IC50 under setting [1] was 6340 nM.
For the compound `CS(=O)(=O)NC(=O)c1ccc(-n2nc(-c3ccc(Cl)cc3F)c3cc(Cl)ccc32)nc1` [Example 128, 6-(5-chloro-3-(4-chloro-2-fluorophenyl)-1H-indazol-1-yl)-N-(methylsulfonyl)nicotinamide], the IC50 under setting [1] turned out to be 1330 nM.
Regarding `O=S(=O)(Nc1cscn1)c1cc(Cl)c(-n2nc(Cl)c3cc(C(F)(F)F)ccc32)cc1F` [Example 280, 5-chloro-4-(3-chloro-5-(trifluoromethyl)-1H-indazol-1-yl)-2-fluoro-N-(thiazol-4-yl)benzenesulfonamide], the IC50 under setting [1] is 1080 nM.
Consider `CS(=O)(=O)NC(=O)c1cc(Cl)c(-n2nc(Cl)c3cc(-c4ccccc4C(F)(F)F)ccc32)cc1F` [Example 250, 5-chloro-4-(3-chloro-5-(2-(trifluoromethyl)phenyl)-1H-indazol-1-yl)-2-fluoro-N-(methylsulfonyl)benzamide], for which the IC50 under setting [1] amounted to 67 nM.
Consider `CS(=O)(=O)NC(=O)c1cc(Cl)c(-n2nc(Cl)c3cc(-c4ccc(F)cc4)ccc32)cc1F` [Example 236, 5-chloro-4-(3-chloro-5-(4-fluorophenyl)-1H-indazol-1-yl)-2-fluoro-N-(methylsulfonyl)benzamide], for which the IC50 under setting [1] stood at 71 nM.
`CS(=O)(=O)NC(=O)c1cc(Cl)c(-n2cc(-c3ccc(Cl)cc3)c3cc(Cl)ccc32)cc1F` [Example 272, 5-chloro-4-(5-chloro-3-(4-chlorophenyl)-1H-indol-1-yl)-2-fluoro-N-(methylsulfonyl)benzamide]: the IC50 under setting [1] is 370 nM.
For `CS(=O)(=O)NC(=O)c1cc(Cl)c(-n2cc(-c3ccccc3C(F)(F)F)c3cc(Cl)cnc32)cc1F` [Example 193, 5-chloro-4-(5-chloro-3-(2-(trifluoromethyl)phenyl)-1H-pyrrolo[2,3-b]pyridin-1-yl)-2-fluoro-N-(methylsulfonyl)benzamide], under setting [1], the IC50 is 100 nM.
`CS(=O)(=O)NC(=O)c1cc(Cl)c(-n2cc(-c3ccc(F)cc3)c3cccnc32)cc1F` [Example 226, 5-chloro-2-fluoro-4-(3-(4-fluorophenyl)-1H-pyrrolo[2,3-b]pyridin-1-yl)-N-(methylsulfonyl)benzamide]: under setting [1], the concentration for half-maximal inhibition (IC50) amounted to 400 nM.
For `CS(=O)(=O)NC(=O)c1ccc(-n2nc(-c3cccc(F)c3)c3cc(Cl)ccc32)c(C#N)c1` [Example 103, 4-(5-chloro-3-(3-fluorophenyl)-1H-indazol-1-yl)-3-cyano-N-(methylsulfonyl)benzamide], the half-maximal inhibitory concentration (IC50) under setting [1] is 2170 nM.
Turning to `CS(=O)(=O)NC(=O)c1cc(Cl)c(-n2nc(Cl)c3cc(-c4ccc(Cl)cc4F)ccc32)cc1F` [Example 247, 5-chloro-4-(3-chloro-5-(4-chloro-2-fluorophenyl)-1H-indazol-1-yl)-2-fluoro-N-(methylsulfonyl)benzamide], the IC50 under setting [1] came to 304 nM.
Same read-out and setting: for `CS(=O)(=O)N(Cc1ccc2ccccc2c1)C(=O)c1cc(Cl)c(-n2nc(Cl)c3cc(O)ccc32)cc1F` [Example 140, 5-chloro-4-(3-chloro-5-hydroxy-1H-indazol-1-yl)-2-fluoro-N-(methylsulfonyl)-N-(naphthalen-2-ylmethyl)benzamide] the value was over 10000 nM.
`Cc1cccc(-c2nn(-c3cc(F)c(C(=O)NS(C)(=O)=O)cc3Cl)c3ccc(Cl)cc23)c1` [Example 52, 5-chloro-4-(5-chloro-3-(m-tolyl)-1H-indazol-1-yl)-2-fluoro-N-(methylsulfonyl)benzamide] showed an IC50 of 39 nM.
Consider `CS(=O)(=O)NC(=O)c1cc(Cl)c(-n2nc(-c3cc(F)cc(Cl)c3)c3cc(F)ccc32)cc1F` [Example 157, 5-chloro-4-(3-(3-chloro-5-fluorophenyl)-5-fluoro-1H-indazol-1-yl)-2-fluoro-N-(methylsulfonyl)benzamide], for which, under setting [1], the IC50 is 100 nM.
For `CS(=O)(=O)NC(=O)c1cc(Cl)c(-n2nc(Cl)c3cc(Oc4ccc(F)nc4)ccc32)cc1F` [Example 47, 5-chloro-4-(3-chloro-5-((6-fluoropyridin-3-yl)oxy)-1H-indazol-1-yl)-2-fluoro-N-(methylsulfonyl)benzamide], under setting [1], the half-inhibitory concentration (IC50) was 437 nM.
On the same count and under the same terms, for `CS(=O)(=O)NC(=O)c1cc(Cl)c(-n2nc(-c3ccccc3F)c3cc(F)ccc32)cc1F` [Example 143, 5-chloro-2-fluoro-4-(5-fluoro-3-(2-fluorophenyl)-1H-indazol-1-yl)-N-(methylsulfonyl)benzamide] the value was 120 nM; for `CS(=O)(=O)NC(=O)c1cc(Cl)c(-n2nc(-c3ccc(F)cc3F)c3cc(F)ccc32)cc1F` [Example 159, 5-chloro-4-(3-(2,4-difluorophenyl)-5-fluoro-1H-indazol-1-yl)-2-fluoro-N-(methylsulfonyl)benzamide], 100 nM.
The same measure, in the same setting: for `CS(=O)(=O)NC(=O)c1cc(Cl)c(-n2nc(-c3ccccc3Cl)c3cc(Cl)ccc32)cc1F` [Example 71, 5-chloro-4-(5-chloro-3-(2-chlorophenyl)-1H-indazol-1-yl)-2-fluoro-N-(methylsulfonyl)benzamide] the value was 48 nM.

The values are drawn from patent US10590078B2, “Sodium channel blockers” (Daewoong Pharmaceutical Co., Ltd., priority 2015, dated 2020).
